The values that follow come from ChEMBL document CHEMBL5441456, “ASAP - SARS-CoV-2 nsp3 macrodomain dose response” (2024).

pIC50: −log10 of the molar value. “And” between values parts separate entries of the source, which are not always exact repeats. Equal values may be shown once. Some results are limits rather than exact numbers.

This assay deals with Replicase polyprotein 1ab (Severe acute respiratory syndrome coronavirus 2, UniProt P0DTD1). Briefly: Functional biochemical assay to identify treatments for viral infectious disease that targets SARS-COV-2 nsp3 macrodomain, whereby the mechanism of action displaces an ADP-Ribose modified peptide from the binding site. Utilizing a time-resolved fluorescence method to measure binding by reading the emitted fluorescence intensity in two wavelengths.
What is called pIC50 is the IC50 on a negative log10 scale, so that one unit is a factor of ten. Low readings indicate a large IC50, high ones a small IC50. For the molecule `CC(C)[C@@H](Nc1ncnc2[nH]c(C(=O)N[C@H]3CCN(C)C3)cc12)c1ccc2c(c1)S(=O)(=O)CCC2`, the pIC50 is 7.27 and 6.97. For the molecule `CCNC(=O)c1cc2c(N[C@@H](c3ccc4c(c3)S(=O)(=O)CCO4)C(C)C)ncnc2[nH]1`, the pIC50 is 7.48 and 7.19 and 7.28 and 7.05 and 7.30 and 7.14. Same read-out and setting: next, `Cc1nn(C)cc1-c1cc2c(N[C@@H](c3ccc4c(c3)S(=O)(=O)CCC4)C(C)C)ncnc2[nH]1`: 4.43 and 4.97; `CNC(=O)c1cccc(-c2cc3c(N[C@@H](c4ccc5c(c4)S(=O)(=O)CCC5)C(C)C)ncnc3[nH]2)c1`: 5.17.

As usually defined, the IC50 is the concentration that gives 50% inhibition. Consider `CC(C)[C@H](Nc1ncnc2[nH]c(-c3cnn(CC(N)=O)c3)cc12)c1ccc2c(c1)S(=O)(=O)CCC2`, for which the half-inhibitory concentration (IC50) was 21 nM and 16 nM and 31 nM (2×) and 15 nM and 23 nM (2×) and 25 nM.

As to `CC(C)[C@@H](Nc1ncnc2[nH]c(-c3cnn(C)c3)cc12)c1ccc2c(c1)S(=O)(=O)NCC2`, the pIC50 is 7.15 and 7.24.

With `CC(C)(C)[C@H](Nc1ncnc2[nH]c(-c3cnn(CC(N)=O)c3)cc12)c1ccc2c(c1)OCCO2`, the pIC50 was 6.91. Regarding `CNCc1cc(-c2cc3c(N[C@H](c4ccc5c(c4)S(=O)(=O)CCC5)C(C)C)ncnc3[nH]2)co1`, the pIC50 is 5.65 and 5.72 and 6.01. On the same count and under the same terms, to `CC(C)[C@H](Nc1ncnc2[nH]c(-c3cnn(C)c3C#N)cc12)c1ccc2c(n1)NC(=O)CO2` belongs 7.00 and 7.02. Consider `CNCc1cc(-c2cc3c(N[C@@H](c4ccc5c(c4)S(=O)(=O)NCC5)C(C)C)ncnc3[nH]2)co1`, for which the half-maximal inhibitory concentration (IC50) was 65 nM and 70 nM (2×) and 108 nM. Take `CC(C)[C@@H](Nc1ncnc2[nH]ccc12)c1ccc2c(c1)S(=O)(=O)CCO2`: the pIC50 was 6.74. On the same count and under the same terms, next, `CC(C)[C@H](Nc1ncnc2[nH]c(-c3cnn(C)c3C#N)cc12)c1ccc2c(c1)NC(=O)CO2`: 6.75; `CC(C)[C@H](Nc1ncnc2[nH]c(-c3cnn(C)c3)cc12)c1ccc2c(c1)S(=O)(=O)CCC2`: 5.04; `CC(C)[C@@H](Nc1ncnc2[nH]c(-c3ccc4nnn(C)c4c3)cc12)c1ccc2c(c1)S(=O)(=O)CCC2`: 7.00 and 7.07. Same read-out and setting: next, `CC(C)[C@@H](Nc1ncnc2[nH]c(-c3ccc4cncn4c3)cc12)c1ccc2c(c1)S(=O)(=O)CCC2`: 6.91 and 7.02; `CC(C)[C@@H](Nc1ncnc2[nH]c(-c3cncc(S(C)(=O)=O)c3)cc12)c1ccc2c(c1)S(=O)(=O)CCC2`: 7.41 and 7.10 and 7.24 and 6.84; `CNC(=O)c1cccc(-c2cc3c(N[C@H](c4ccc5c(c4)S(=O)(=O)CCC5)C(C)C)ncnc3[nH]2)c1`: 7.85 and 7.59 and 8.00 and 7.70 and 7.66 and 7.57 and 7.54.

`CC(C)[C@@H](Nc1ncnc2[nH]c(-c3cccc(-n4cnnn4)c3)cc12)c1ccc2c(c1)S(=O)(=O)CCC2` had a pIC50 of 6.62. As to `CC(C)[C@@H](Nc1ncnc2[nH]c(-c3ccc(S(=O)(=O)NCCO)cc3)cc12)c1ccc2c(c1)S(=O)(=O)CCC2`, the pIC50 was 7.00 and 7.05 and 6.81. For the molecule `CNc1nccc(N[C@H](c2ccc3c(c2)S(=O)(=O)CCC3)C(C)C)n1`, the pIC50 was < 4.00. Same read-out and setting: next, `CC(C)[C@H](Nc1ncnc2[nH]cnc12)c1ccc2c(c1)S(=O)(=O)CCC2`: 6.13; `CCNC(=O)c1cc2c(N[C@@H](c3ccc4ncn(C)c(=O)c4c3)C(C)C)ncnc2[nH]1`: 6.39 and 6.34; `CC(C)[C@H](Nc1ccnc2[nH]ccc12)c1ccc2c(c1)S(=O)(=O)CCC2`: < 4.00. On the same count and under the same terms, to `CC(C)[C@@H](Nc1ncnc2[nH]c(-c3ccc4c(c3)C(C)(C)C(=O)N4)cc12)c1ccc2c(c1)S(=O)(=O)CCC2` belongs 6.48; to `CC(C)[C@@H](Nc1ncnc2[nH]c(-c3ccc(S(N)(=O)=O)c4nsnc34)cc12)c1ccc2c(c1)S(=O)(=O)CCC2`, 6.62; to `CC(C)[C@@H](Nc1ncnc2[nH]c(-c3cccc4c3NC(=O)C4)cc12)c1ccc2c(c1)S(=O)(=O)CCC2`, 6.44.

With `CCNC(=O)c1cc2c(N[C@@H](c3ccc4c(n3)NC(=O)CO4)C(C)C)ncnc2[nH]1`, the pIC50 was 5.97 and 6.24. The same measure, in the same setting: next, `CCNC(=O)c1cc2c(N[C@H](c3ccc4nc(NC(C)=O)sc4c3)C(C)C)ncnc2[nH]1`: 4.52. The same measure, in the same setting: to `CC(C)[C@H](Nc1ncnc2n[nH]cc12)c1ccc2c(c1)S(=O)(=O)CCC2` belongs 5.81 and 6.11; to `CC(C)[C@@H](Nc1ncnc2[nH]c(-c3cnc(N)nc3)cc12)c1ccc2c(c1)S(=O)(=O)CCC2`, 7.07 and 7.21 and 6.97. On the same count and under the same terms, next, `CC(C)[C@@H](Nc1ncnc2[nH]c(-c3cncnc3)cc12)c1ccc2c(c1)S(=O)(=O)CCC2`: 6.32 and 6.51 and 6.27. Regarding `CCNC(=O)c1cc2c(N[C@H](c3ccccc3N(C)S(C)(=O)=O)C(C)C)ncnc2[nH]1`, the pIC50 is < 4.00. Same read-out and setting: to `CC(C)(C)[C@H](Nc1ncnc2[nH]c(-c3cnn(CC(N)=O)c3)cc12)c1ccc2c(n1)OCCO2` belongs 4.85 and 4.97; to `CNC(=O)c1cc2c(N[C@H](c3ccc4c(c3)S(=O)(=O)CCC4)C(C)C)ncnc2[nH]1`, 5.75; to `CC(C)[C@@H](Nc1ncnc2[nH]c(-c3cnc(N4CC(O)C4)nc3)cc12)c1ccc2c(c1)S(=O)(=O)CCC2`, 7.03 and 7.17 and 6.94.

The molecule `CNS(=O)(=O)c1cc2c(N[C@@H](c3ccc4c(c3)S(=O)(=O)CCC4)C(C)C)ncnc2[nH]1` had a pIC50 of 5.93.

With `CC(C)[C@@H](Nc1ncnc2[nH]ccc12)c1ccc2c(n1)S(=O)(=O)CCC2`, the pIC50 is 5.95 and 6.11. Same read-out and setting: next, `CC(C)[C@H](Nc1ncnc2[nH]c(-c3cnn(CC(N)=O)c3)cc12)c1ccc2c(n1)OCCO2`: 4.93; `CC(C)[C@@H](Nc1ncnc2[nH]c(C3=CCOC3)cc12)c1ccc2c(c1)S(=O)(=O)CCC2`: 7.09 and 6.94 and 6.61. Molecule `CC(C)[C@H](Nc1ncnc2[nH]c(C(=O)N[C@H]3CCN(C)C3)cc12)c1ccc2c(c1)S(=O)(=O)CCC2` had a pIC50 of 5.50. Same read-out and setting: next, `COC(=O)c1cc2c(N[C@@H](c3ccc4c(c3)CCN4)C(C)C)ncnc2[nH]1`: 4.54 and 4.42 and 4.55; `CC(=O)N1CCN(Cc2cccc(-c3cc4c(N[C@@H](c5ccc6c(c5)S(=O)(=O)CCC6)C(C)C)ncnc4[nH]3)c2)CC1`: 6.59 and 6.73 and 6.49.

`CC(C)[C@H](Nc1ncnc2[nH]cc(C(=O)NC3CC3)c12)c1ccc2c(c1)S(=O)(=O)CCC2`: the pIC50 was 5.41 and 5.19 and 5.37. On the same count and under the same terms, to `CC(C)[C@@H](Nc1ncnc2[nH]c(-c3ccc(S(C)(=O)=O)nc3)cc12)c1ccc2c(c1)S(=O)(=O)CCC2` belongs 7.31 and 7.27 and 7.03 and 7.22 and 7.16; to `CC(C)[C@@H](Nc1ncnc2[nH]c(C(=O)NC3CCN(C)CC3)cc12)c1ccc2c(c1)S(=O)(=O)CCC2`, 6.68. Still for that read-out and setting: to `CCNC(=O)c1cc2c(N[C@@H](c3ccc4c(c3)S(=O)(=O)CCC4)C3CC3)ncnc2[nH]1` belongs 6.40 and 6.58; to `CCNC(=O)c1cc2c(N[C@@H](c3ccc4c(c3)CCN4C(=O)C3CC3)C(C)C)ncnc2[nH]1`, 4.61. The same measure, in the same setting: next, `CC(C)[C@@H](Nc1ncnc2[nH]c(-c3cc4c(cc3F)NC(=O)CC4)cc12)c1ccc2c(c1)S(=O)(=O)CCC2`: 6.53 and 6.72 and 6.46; `Cc1n[nH]c(C)c1-c1cc2c(N[C@@H](c3ccc4c(c3)S(=O)(=O)CCC4)C(C)C)ncnc2[nH]1`: 6.34 and 6.57 and 6.30; `CC(C)[C@@H](Nc1ncnc2[nH]c(-c3ccc(=O)n(C)c3)cc12)c1ccc2c(c1)S(=O)(=O)CCC2`: 7.30 and 7.34 and 7.40 and 7.32 and 7.11. Take `CC(C)[C@H](Nc1ncnc(N)c1Cl)c1ccc2c(c1)S(=O)(=O)CCC2`: the pIC50 is 5.53 and 5.81. Same read-out and setting: to `CC(C)[C@@H](Nc1ncnc2[nH]c(-c3ccn(C)c(=O)c3)cc12)c1ccc2c(c1)S(=O)(=O)CCC2` belongs 7.13 and 7.20 and 6.95; to `CC(C)[C@@H](Nc1ncnc2[nH]c(-c3cc(O)nc4ccccc34)cc12)c1ccc2c(c1)S(=O)(=O)CCC2`, 5.78. Same read-out and setting: to `CNC(=O)Cn1cc(-c2cc3c(N[C@H](c4ccc5c(c4)OCCO5)C(C)C)ncnc3[nH]2)cn1` belongs 6.67 and 6.65; to `CCNC(=O)c1cc2c(NC3(c4ccc5c(c4)S(=O)(=O)CCC5)CCC3)ncnc2[nH]1`, 5.52. On the same count and under the same terms, to `CC(C)[C@H](Nc1ncnc2[nH]c(-c3cnn(CC(=O)N(C)C)c3)cc12)c1ccc2c(c1)S(=O)(=O)CCC2` belongs 5.26 and 5.37; to `CC(C)[C@H](Nc1ncnc2[nH]c(C(=O)N[C@@H]3CCN(C)C3)cc12)c1ccc2c(c1)S(=O)(=O)CCC2`, 5.50 and 5.54 and 5.42 and 5.79; to `CC(C)[C@@H](Nc1ncnc2[nH]c(-c3cnc4c(c3)nnn4C)cc12)c1ccc2c(c1)S(=O)(=O)CCC2`, 6.62 and 6.88 and 6.46. For `CC(C)[C@@H](Nc1ncnc2[nH]c(C3=CCS(=O)(=O)C3)cc12)c1ccc2c(c1)S(=O)(=O)CCC2`, the pIC50 was 6.97 and 6.77 and 6.93. Take `CC(C)[C@@H](Nc1ncnc2[nH]c(S(C)(=O)=O)cc12)c1ccc2c(c1)S(=O)(=O)CCC2`: the pIC50 was 6.00. The same measure, in the same setting: next, `CC(C)[C@@H](Nc1ncnc2[nH]c(-c3ccn4cnnc4c3)cc12)c1ccc2c(c1)S(=O)(=O)CCC2`: 7.03 and 7.14 and 6.90; `CC(C)[C@@H](Nc1ncnc2[nH]c(C(=O)NC3CN(C)C3)cc12)c1ccc2c(c1)S(=O)(=O)CCC2`: 6.72; `CC(C)[C@@H](Nc1ncnc2[nH]c(-c3cn[nH]c3)cc12)c1ccc2c(c1)S(=O)(=O)CCC2`: 7.20 and 7.28 and 7.07 and 7.24 and 7.22. Still for that read-out and setting: next, `Cc1nnn(C)c1-c1cc2c(N[C@@H](c3ccc4c(c3)S(=O)(=O)CCC4)C(C)C)ncnc2[nH]1`: 6.38; `CC(C)[C@H](Nc1cccc2nc[nH]c(=O)c12)c1ccc2c(c1)S(=O)(=O)CCC2`: < 4.00. `CCNC(=O)c1cc2c(N[C@H](c3ccc4c(c3)S(=O)(=O)CCC4)C(C)C)ncnc2[nH]1`: the pIC50 is 5.89. Still for that read-out and setting: next, `CC(C)[C@@H](Nc1ncnc2[nH]ccc12)c1ccc2c(c1)SCCO2`: 5.73 and 5.71; `CC(C)[C@H](Nc1ncnc2[nH]c(-c3cnn(CC(N)=O)c3)cc12)c1ccc2c(c1)NC(=O)CO2`: < 4.00; `CCNC(=O)c1cc2c(N[C@@H](c3cnc(NC(C)=O)s3)C(C)C)ncnc2[nH]1`: 5.36 and 5.27 and 5.38.

With `CC(C)[C@@H](Nc1ncnc2[nH]c(-c3ccnc(OCCN(C)C)c3)cc12)c1ccc2c(c1)S(=O)(=O)CCC2`, the pIC50 is 6.94. On the same count and under the same terms, to `CNC(=O)c1cc2c(N[C@H](c3ccc4c(c3)NC(=O)CO4)C(C)C)ncnc2[nH]1` belongs 5.27 and 6.02 and 5.87 and 5.97; to `CC(C)[C@@H](Nc1ncnc2[nH]ccc12)c1ccc2c(c1)[S+]([O-])CCO2` (some centres not stated), 6.22 and 6.20.
